Several values for one entry are separate records, joined by “and”; a condition that tells them apart may be missing. Equal entries are not always repeated.

The test system of experiment [1] is Alternative Pathway Dependent C3b formation in Normal Human Serum. In words: Alternative pathway-dependent C3b assay on LPS coated plates. It counts as biochemical. Particulars: for inhibition of C3b formation: increasing concentrations. The text has this:
As a result, C3b is generated and is deposited on to LPS. […] LPS bound C3b was detected with a rabbit anti-human C3c antibody (Dako Corp). Rabbit antibody bolund to C3b was detected with peroxidase-conjugated goat anti-rabbit polyclonal antibody. Peroxidase was detected with TMB substrate using common methods.
It was of interest to us to determine whether the Dextran Sulfate might appreciably affect the C3b generation, an important component of the amplification loop of the complement cascade. To analyze the effects of the Dextran Sulfate on C3b formation via the alternative pathway, an assay was utilized in which bacterial LPS was used as a substrate to initiate the alternative complement pathway cascade. […] Microtiter wells were coated with LPS (2 μg/50 μl per well) in VBS overnight at 4° C. Uncoated wells served as background controls. After aspirating the LPS solution, wells were treated with blocking solution and incubated with various concentrations of normal human serum. Following a 2 hour incubation at 37° C., deposited C3b was detected with rabbit anti-human C3c polyclonal antibody (Accurate Biochemicals) using standard ELISA methodologies essentially as described in the Examples above. […] The amount of inhibition of soluble C3b deposition was determined using the antibody detection system described in the Examples above.

The subject of experiment [2] is Thrombin Generation in Citrated Human plasma. Nature of the experiment: Thrombin generation in citrated human plasma (innovin, S2238). It counts as biochemical. The protocol: FIG. 7 illustrates NM33014 Inhibits Thrombin Generation in Citrated Human plasma: Citrated Human Plasma was mixed with various concentrations of Dextran Sulfate in the presence of constant concentration of S2238 (Diapharma). […] Data was recorded using Soft Max-Pro on Spectramax 190 kinetic spectramax. Data presented is from a representative experiment that was repeated three times.
Citrated human plasma (100 μl) was mixed with various concentrations of Dextran Sulfate in the presence of constant concentration of S2238 (100 μl of 2 μg/ml).

In experiment [3] the test system is immune cells infiltrating the synovial fluid. Nature of the experiment: Cellular infiltration into arthritic knee joints of AIA rabbits. As to conditions: 48-h after last treatment, vs vehicle-treated AIA rabbits.
Procedure: Methods. The numbers of immune cells infiltrating the synovial fluid of the right and left joints was determined by cell counting using a hemocytometer.
Synovial samples were also collected from the right and left knees of the AIA rabbits in this experiment and assessed for immunocyte infiltration 48-h after the last Dextran Sulfate or vehicle treatment. […] Data are presented as mean number of cells±SEM for each rabbit (N of 5 per treatment group, Stats: repeated measure ANOVA with Bonferoni Post-hoc test, *p<0.05).
The test system of experiment [4] is Complement Activity in Antigen-Induced Arthritic Rabbit. Nature of the experiment: Complement activity in antigen-induced arthritic rabbits (C3c assay). As to conditions: 60 mg/Kg i.v.; for inhibition of complement activation in vivo: ten minutes after treatment, vs vehicle-treated AIA rabbits.
Procedure: METHODS: After the intra-articular ovalbumin injection to induce arthritis, disease pathology developed for seven days prior to the collection of a blood sample to determine complement activation levels and the administration of Dextran Sulfate treatment. Blood samples were drawn prior to all treatments with Dextran Sulfate to establish baseline values and pre-treatment complement activation levels. Dextran Sulfate (60 mg/Kg) was then injected via the marginal vein every day over a 3 day period. Ten minutes after treatment with Dextran Sulfate a second 1-ml blood sample from the ear to assess complement activation shortly after the treatment. Complement activation was assessed using the C3c assay described in methods.
The target in another experiment is Properdin Binding to C3b (Homo sapiens, UniProt P27918). In words: Inhibition of properdin binding to C3b (ELISA). As to conditions: C3b coated plates. In general terms: An ELISA detects its analyte on a solid surface through an enzyme-linked reagent.
Experiment [5] has as its system C5b-9 Formation in Normal Human Serum. In words: Alternative pathway-dependent C5b-9 (MAC) solid phase ELISA on LPS. It counts as biochemical. As to conditions: 8% NHS, LPS coated wells. The method, then:
Uncoated wells served as background controls.
Microtiter wells were coated with LPS (2 μg/50 μl per well) in VBS overnight at 4° C. Uncoated wells served as background controls. After aspirating the LPS solution, wells were treated with blocking solution and incubated with various concentrations of normal human serum.

For experiment [6], the target named is T1, human properdin (or factor P) (Homo sapiens, UniProt P27918).
T1 construct: purchased Advanced Research Technology, San Diego, Calif; A139
In words: Properdin binding to substrate-bound Dextran Sulfate (ELISA). Particulars: substrate-bound Dextran Sulfate on microtiter plate; read-out: affinity of properdin binding to Dextran Sulfate (concentration of properdin at 50% maximal binding). The method, then:
The binding of properdin appears to be specific and dose dependent. Leading to an affinity of 4 nM. […] Wells without Dextran Sulfate coating serve as background controls. […] Properdin solution was added to the appropriate wells.

The test system of a further experiment is arthritic Lewis rats. Nature of the experiment: Joint inflammation and bone destruction in Rat-AIA (CFA-induced arthritis). It is filed as in vivo. The protocol:
Lewis male rats were used to examine the effect of Dextran Sulfate combination with aggrastat (molecular weight 40,000 and 5,000) for the treatment of arthritis. Arthritis was induced in adult male Lewis rats (200-225 gm) by an intradermal injection of complete Freund's adjuvant (CFA) at the base of the tail on the dorsal side. The CFA (100 mg dried and heat killed Mycobacterium butyricum (Difco, Detroit, Mich.) emulsified in 10 ml sterile mineral oil) was prepared by grinding the bacteria powder with a mortar and pestle until the bacterial cell wall turned from a light beige to an eggshell white powder. The mineral oil was then slowly mixed into the bacterial cell wall using the mortar and pestle. All animals in each experiment were challenged with the same preparation of adjuvant and nearly 100% of the animals developed arthritis. Dextran Sulfate was obtained from Sigma Aldrich Corp and Aggrastat was purchased from the pharmacy. Dextran Sulfate was dissolved in aggrastat. The drug treatment started on day 10 post-immunization, the time of disease onset, and continued until sacrifice. The dose of Dextran Sulfate was 20 & 10 mg/Kg/per day per 150-200 g rat. The inflammatory response was assesed by the measurement of paw volume. Paw volume appears to be very consistent and gave slow increasing arthritis over time. Paw volumes were measured every day until sacrifice using Plethysmometer (IITC). After the sacrifice/euthanasia, limbs were removed and processed for;
a) histological evaluations: Only three animals were used per group. Sections were stained with Eosin and hematoxylin to identify various regions within the inflamed limb. Untreated controls have intact cartilage layer and the bone (Score 0) and clear synovium without pannus. Arthritic controls had no defined cartilage bone, and have pannus layer and significant inflammation (Score 5). Enbrel was used as positive control. […] We gave a score of 2.
b) Paw Swelling: Each paw was measured for water displacement using plethysmometer. Paw volume was measured every day.
Continuous treatment of Dextran Sulfate therapies from disease onset affected paw swelling in arthritic rats. All adjuvant-challenged rats developed AA between days 10-12. […] While inflammation was decreased in these treatment groups, we observed a greater effect for these drugs in prevention of bone and cartilage destruction.

Chain of Properdin Binding to C3b (P27918 28-469): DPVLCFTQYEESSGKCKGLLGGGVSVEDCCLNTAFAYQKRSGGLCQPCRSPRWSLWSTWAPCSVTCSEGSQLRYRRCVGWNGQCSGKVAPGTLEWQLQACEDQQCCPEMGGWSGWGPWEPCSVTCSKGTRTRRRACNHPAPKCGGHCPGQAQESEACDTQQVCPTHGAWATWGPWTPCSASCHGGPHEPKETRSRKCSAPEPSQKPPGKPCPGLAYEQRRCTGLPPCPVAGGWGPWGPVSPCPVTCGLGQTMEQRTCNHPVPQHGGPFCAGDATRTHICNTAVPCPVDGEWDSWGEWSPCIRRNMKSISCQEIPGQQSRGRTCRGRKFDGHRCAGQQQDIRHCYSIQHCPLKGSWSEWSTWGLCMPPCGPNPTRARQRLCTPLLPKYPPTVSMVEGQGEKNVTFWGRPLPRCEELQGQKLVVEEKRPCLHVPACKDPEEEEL
T1 sequence (P27918 28-469): as above
Procedure for Properdin Binding to C3b: Methods: Polystyrene microtiter plates were coated with C3b in phosphate buffered saline (PBS) overnight. After aspirating the C3b solution, wells were blocked bovine serum albumin Wells without C3b coating served as background controls. […] Wells were washed PBS and C3b-bound properdin was detected by the addition of a mouse anti-human properdin antibody (Quidel, P#2 monoclonal). After washing the plate with PBS, HRP-conjugated goat anti-mouse antibody (Sigma Chemicals A2304) was added and allowed to incubate for 1 h. The plate was again rinsed thoroughly with PBS, and TMB substrate was added to each well. The data was plotted using Microcal Origin Program.
In a typical assay, polystyrene microtiter plates were coated with C3b (50 μg/50 μl/well, Advanced Research Technologies, San Diego, Calif.) in phosphate buffered saline (PBS) overnight at 4° C. After aspirating the C3b solution, wells were blocked with PBS containing 1% bovine serum albumin (BSA) (Sigma Chemical Company, St. Louis, Mo., Cat. No. A7888) for 2 hours at room temperature. Wells without C3b coating served as background controls. […] C3b-bound properdin was detected by the addition of mouse monoclonal anti-human properdin antibody (detection antibody) (Quidel, San Diego, Calif., anti-human properdin monoclonal antibody P#2, Cat. No. A235) at 1:2000 dilution in blocking solution, which was allowed to incubate for 1 hour at room temperature. […] After incubation for 10 minutes at 25° C., the reaction of TMB was quenched by the addition of 100 μl of phosphoric acid, and the plate was read at 450 nm in a microplate reader (e.g., SPECTRA MAX 190, Molecular Devices, Sunnyvale, Calif.). […]
The ability of a Dextran Sulfate to inhibit C3b-P binding was evaluated by adding varying concentrations of Dextran Sulfate to a constant concentration of properdin (2 nM). The amount of properdin bound to C3b was detected with the antibody detection system described above.

For the substance Dextran Sulfate [NM3014], the “IC50 of inhibition of C3b formation” value in experiment [1] (10% normal human serum) was in the range of 7 to 10 µg/mL. For the same substance, the “inhibition of C3b formation” value in experiment [1] is given as “inhibited C3b formation in a dose dependent manner”; in experiment [1] (listed as Dextran Sulfate), “completely prevents C3b generation in a dose dependent manner”. Moreover, the “effect on coagulation (thrombin generation)” value in experiment [2] (10 μg/ml) is “partial effect”; in experiment [2] (30 μg/ml), “inhibit coagulation”; in experiment [2] (60 μg/ml), “inhibit coagulation”. Moreover, the “immunocyte infiltration into arthritic knee joints” value is “reduced” in experiment [3] and “significant decrease” in experiment [3] (listed as Dextran Sulfate). The “inhibition of AP activity in vivo” value in experiment [4] (24 hour later) is on record as “no inhibition”. In addition, the “inhibition of complement activation in vivo” value in experiment [4] was “complete inhibition”; in experiment [4] (listed as Dextran Sulfate), “completely blocked”. In addition, the “inhibition of properdin binding to C3b” value on Properdin Binding to C3b is “dose-dependent and complete inhibition”; at Properdin Binding to C3b (listed as Dextran Sulfate), “dose-dependent inhibition”. Further, the “IC50 of inhibition of properdin binding to C3b” value at Properdin Binding to C3b (human serum containing nearly 2-5 nM properdin) was roughly 50 µg/mL. Moreover, the figures for the “inhibition of C5b-9 (MAC) formation” value in experiment [5] and in experiment [5] (listed as Dextran Sulfate) were “Inhibits C5b-9 Formation” and “completely prevented”, respectively. Besides, in experiment [6], the Kd is 4 nM and ~4 nM. Further, in the experiment with arthritic Lewis rats (by day 28 post-adjuvant injection, vs vehicle-treated AA rats), the soft tissue swelling entry is on record as “significantly decreased”. In the experiment on arthritic Lewis rats (with Aggrastat, compared to untreated controls, listed as Dextran Sulfate 40,000 molecular weight), the “paw swelling (paw volume, plethysmometer)” value is “significantly decreased”.

For the origin of these results see patent US9023831B2, “Methods and compositions of inhibiting complement and cellular activation with Dextran Sulfate” (Novelmed Therapeutics, Inc., priority 2007, dated 2015).
